In patent US10933077B2, “TLR4 inhibitors for the treatment of human infectious and inflammatory disorders” (UNIVERSITY OF PITTSBURGH—OF THE COMMONWEALTH SYSTEM OF …, priority 2010, dated 2021):

How the values were obtained:
[1] = test system: LPS-induced NFkB activation; assay: NFkB-luciferase reporter mice assay (LPS-induced endotoxemia); type: in vivo; conditions: LPS 2 mg/kg plus compound 1 mg/kg i.p.
Procedure: Compound preparation and delivery. All 65 identified compounds were received in solid form and stored at 4° C. until use. Stock solutions of each compound were made by dissolving the appropriate amount of each compound in dimethyl sulfoxide (DMSO) to yield a concentration of 10 mM. Immediately prior to injection into experimental animals, the compounds were diluted to an experimental concentration of 100 uM in phosphate-buffered saline (PBS). Total concentration of DMSO in the final diluted drug was 1%. Compounds were closely examined to insure that no precipitate formed prior to injection and were stored on ice until injection. All compounds were given via intraperitoneal (i.p.) injection in a total volume of 200 ul using a 1 cc syringe and 27 gauge needle. In all experiments listed below, the compounds were delivered to the experimental mice 30 minutes prior to injection with lipopolysaccharide (LPS) to induce endotoxemia. Control animals not receiving compound received 1% DMSO dissolved in PBS. Following drug injection, the mice were observed closely in their cages for signs of immediate toxicity or adverse reaction to the drug, including but not limited to piloerection, tachypnea, bleeding, abnormal or aggressive behavior, signs of altered mental status, and level of activity.
Induction of endotoxemia. All mice were housed and cared for at the Rangos Research Center, Children's Hospital of Pittsburgh (Pittsburgh, Pa.). All experiments were approved by the Children's Hospital of Pittsburgh Animal Care Committee and by the Institutional Review Board of the University of Pittsburgh. Swiss Webster (CFW) and NFkB-luciferase reporter mice were obtained from The Jackson Laboratory. Throughout the course of all experiments, mice were housed 4 per cage with access to food, water, and standard bedding. Endotoxemia was induced in all experiments by i.p. injection of LPS (Escherichia coli 0111:B4 purified by gel filtration chromatography, >99% pure, Sigma-Aldrich) at a dose of 2 mg/kg for 6 hours. At the end of each experiment, all animals were euthanized by CO2 hypoxia and cervical dislocation.
NFkB-luciferase reporter mice assay. NFkB-luciferase reporter mice, in which the […], were subjected to endotoxemia with or without pretreatment with experimental compounds. The experimental compounds treated by this assay were compounds 1-6, with compounds 1-3 tested first and compounds 4-6 tested later. For both experiments, the mice were 6 weeks old on the date of the experiment. […] After whole body imaging, an additional injection of luciferin is given and animals were euthanized, organs were harvested, and the extent of NFkB activation within various tissues was further analyzed by an additional luminescence image of the individual organs. […]

[2] = Murine hemorrhagic shock (H/S) model, serum AST and ALT (liver damage); type: in vivo, mice; conditions: 1 mg/kg, i.p. divided in two doses (30 minutes prior to H/S and immediately prior to resuscitation); versus PBS
Procedure: An experiment was performed to test the effect of TLR4 inhibitors and C34 in particular on the tissue damage associated with hemmorhagic shock. A murine model was used in which, under sterile conditions and anesthesia induced using i.p. sodium pentobarbital (20 mg/kg), a left groin exploration was performed, and the left femoral artery was cannulated with tapered polyethylene (PE)-10 tubing and connected to a blood pressure transducer for continuous mean arterial pressure (MAP) monitoring for the duration of the experiment (6 h) as described in Sodhi, et al., 2011, Am. J. Physiol. Gastrointest. Liver Physiol. 300(5):G862-G873. To induce hemorrhagic shock, blood was withdrawn to allow the mean arterial pressure to drop to 25 mmHg over 5 minutes, and the blood pressure was maintained at this level for 150 min. The mice were then resuscitated over 10 min with lactated Ringer's solution. Sham-operated mice underwent anesthesia and femoral cannulation only. In this model system, the extent of liver damage is reflected in increased serum levels of aspartate aminotransferase (AST) and alanine transaminase (ALT).

iNOS mRNA [3] = assay: Human NEC tissue explants treated with LPS, iNOS mRNA; type: cell-based; conditions: C34 10 uM, 30 minutes pretreatment; LPS 25 ug/ml, 37° C., 3 hours
Procedure: (§1) The effect of C34 was then tested on explants of human NEC tissue. These explants were obtained from human infants suffering from NEC and were prepared from NEC-affected portions of the intestine. When explants were treated with LPS (25 ug/ml, 37° C., 3 hours) the level of TNFα mRNA (FIG. 12) and iNOS mRNA (FIG. 13) increased precipitously.

TNFα mRNA = assay: Human NEC tissue explants treated with LPS, TNFα mRNA; type: cell-based; conditions: C34 10 uM, 30 minutes pretreatment; LPS 25 ug/ml, 37° C., 3 hours
Procedure: as §1

iNOS mRNA [4] = assay: CFW-NEC mouse model (formula feeding), iNOS mRNA levels; type: in vivo; conditions: 1 mg/kg, i.p., once daily for the first four days of the five day model; relative to RPLO
Source text: (§2) Inducible nitric oxide synthase (iNOS) is associated with necrotizing enterocolitis (NEC) in human infants. In a second set of experiments, the CFW-NEC mouse model system for NEC was used to evaluate the effect of various compounds from TABLES 1 and 2 above on iNOS mRNA levels. A model system for NEC was induced in newborn mouse pups by formula feeding, where control animals were breast-fed (Sodhi et al., 2010, Gastroenterol. 138(1):185-196; Richardson et al., 2010, Gastroenterol. 139(3):904-917). […] Note that RPLO stands for 505 ribosomal subunit protein L15, an acknowledged housekeeping gene, which means that it is a constitutive gene expressed at relatively constant levels by all cells and is thus used as a reference for comparing other genes which may vary under experimental conditions. In this same model system, levels of TLR4 mRNA levels were also evaluated. […] In contrast, the level of TLR4 was not increased in FF animals treated with C34 (1 mg/kg, i.p. once daily for the first four days of the five day model) and indeed mRNA levels were 30 percent below normal (see FIG. 14).

TLR4 mRNA = assay: CFW-NEC mouse model (formula feeding), TLR4 mRNA levels; type: in vivo; conditions: 1 mg/kg, i.p. once daily for the first four days of the five day model
Source text: as §2

In the case of `CC(=O)NC1C(OC(C)C)OC(COC(C)=O)C(OC(C)=O)C1OC(C)=O` (centres unmarked) [Compound 34, isopropyl 3,4,6-tri-O-acetyl-2-(acetylamino)-2-deoxyhexopyranoside], the “NFκB signalling (luciferase imaging)” value [1] was “reduced NFκB signalling”, the “increase in serum ALT in H/S animals” value [2] was “inhibited the increases” and the “increase in serum AST in H/S animals” value [2] was “inhibited the increases in AST”. For the same compound, the “LPS-induced increase of iNOS mRNA” value (iNOS mRNA [3]) was “substantially reduced”, the “LPS-induced increase of TNFα mRNA” value (TNFα mRNA) was “substantially reduced” and the “increase of iNOS mRNA level in formula-fed (FF) pups” value (iNOS mRNA [4]) was “almost eliminated”. The “level of TLR4 mRNA in FF animals” value (TLR4 mRNA) was “not increased” and the “TLR4 mRNA levels below normal” value (TLR4 mRNA; FF animals) was 30%.
